3 compounds from patent publication US20240360153A1 (Regeneron Pharmaceuticals, Inc., priority 2023, published 2024) can be followed below.

Data set [1] is described as follows: In vitro microsomal metabolic stability, human liver microsomes. The conditions noted are these: for Remaining (T = 60 min) / Remaining (T = NCF60 min) / half-life at 1 µM: Human liver microsomes; for Remaining (T = 60 min): with NADPH; for Remaining (T = NCF60 min): without NADPH regenerating system; for Remaining (T = 60 min) / Remaining (T = NCF60 min): 60 min; for CLint scaled at 1 µM / microsomal CLint at 1 µM: human, human liver microsomes; for CLint scaled at 1 µM / microsomal CLint at 1 µM / half-life at 1 µM: pH 7.2; for half-life at 1 µM: 0.5 mg/ml protein, NADPH. The data set is classed as in vitro ADME. As for the experimental part: (§1) Buffers: PBK Buffer: 50 mM potassium phosphate buffer (PPB), pH 7.2, with 3.3 mM Magnesium Chloride.
(§2) TA Intermediate solution: Compound or control (3 μL) diluted from stock solution (10 mM) with 297 μL 90.0% methanol/water. (Conc: 100 μM; 1.0% DMSO, 89.1% MeOH).
(§3) Control cocktail intermediate solution: Each control (3 μL) was diluted with 291 μL 90.0% methanol/water.
(§4) Diluted TA intermediate stock solution and PC control stock were made by transferring 80 μL of 100 μM TA stock solution into new tubes and then adding 720 μL of 1.0% DMSO in 50 mM potassium phosphate buffer (conc. 10 μM; 1.0% DMSO, 8.91% MeOH).
(§5) Preparation of Liver microsomes working solution (1.25×)(final Conc.: 0.5 mg/mL).
(§6) Acetonitrile:methanol (9:1, v/v)(including 200 ng/mL tolbutamide and 200 ng/ml labetalol hydrochloride as internal standards).
(§7) Working solution: Intermediate solution (80 μL) was diluted with 720 μL 1.0% DMSO in 50 mM potassium phosphate buffer (Conc.: 10 μM; 1.0% DMSO, 8.91% MeOH)
(§8) Procedure: Stock solution was added to each of the time point plates. Microsomes solution (360 μL/well), TA/PC (45 μL/well), and NADPH (45 μL/well) min. (Conc: 1.0 μM, 0.10% DMSO, 0.891% MeOH) were added to the incubation plates. To the T60 and NCF60 plate, TA (15 ul/well) and Microsomes (120 ul) were added. To the blank plate, microsome (50 ul/well) with stop solution (150 ul/well) were added. At the end of each time point, 50 ul/well was aliquoted from the incubation plate. The sampling plates were shaken for approximately 10 min. on a shaker and the samples were centrifuged at 4000 rpm for 15 min. Supernatant (120 μL) was transferred for LC/MS/MS.Compounds from Table 3 were incubated at 37° C. with liver microsomes (pooled from multiple donors) at 1 μM in the presence of a NADPH regenerating system at 0.5 mg/ml microsomal protein. Positive controls included testosterone (3A4 substrate), propafenone (2D6) and diclofenac (2C9), which were incubated with microsomes in the presence of an NADPH regenerating system. At time points (0, 5, 10, 20, 30 and 60 minutes), samples were removed and immediately mixed with cold acetonitrile containing the internal standard (IS). Test compounds incubated with microsomes without the NADPH regenerating system for 60 min are also included. A single point for each test condition (n=1) was obtained, and samples were analyzed by LC/MS/MS. Disappearance of the test compound was assessed based on peak area ratios of analyte/IS (no standard curve).
On the technique in general: Liver microsomes are vesicles of endoplasmic reticulum, rich in cytochrome P450 enzymes.

Data set [2] can be described thus: In vitro microsomal metabolic stability, CD-1 mouse liver microsomes. The data set is classed as in vitro ADME. The conditions noted are these: for CLint scaled at 1 µM / microsomal CLint at 1 µM: CD-1, mouse, mouse liver microsomes, pH 7.2; for half-life at 1 µM: CD-1, pH 7.2, 0.5 mg/ml protein, NADPH; for half-life at 1 µM / Remaining (T = 60 min) / Remaining (T = NCF60 min): Mouse liver microsomes; for Remaining (T = 60 min): with NADPH; for Remaining (T = NCF60 min): without NADPH regenerating system; for Remaining (T = 60 min) / Remaining (T = NCF60 min): 60 min. As for the experimental part: as §1, §2, §3, §4, §5, §6, §7, §8

Data set [3] relates to S6K1 (Thr389) phosphorylation (mTORC1 activity) in wild-type (WT) 293T cells. The experiment in a line: Inhibition of S6K1 (Thr389) phosphorylation in wild-type 293T cells (ELISA). The format is cell-based, human. The conditions noted are these: for IC50: Homo sapiens, HEK-293T, 2 h, wild-type 293T cells, 2 hours treatment; for fold lower potency compared with RAD001 (by IC50) / extent of inhibition of S6K1 (Thr389) phosphorylation: wild-type cells; for extent of inhibition of S6K1 (Thr389) phosphorylation: with increasing concentrations. As for the experimental part:
(§9) Treatment of wild-type (WT) and FKBP12 knock-out 293T cells with RAD001 (everolimus) and test compounds. WT and FKBP12 knock-out 293T cells were cultured in Dulbecco's modified Eagle's medium (Gibco #11971-025) supplemented with 10% fetal bovine serum (Gibco #26140-079). Cells were plated at a density of 15,000 cells per well in poly-D-Lysine coated 96-well plates (Corning, #354461) and were incubated at 37° C., 5% CO2 for 24 hours until they reached ˜80% confluence. Cells were treated with RAD001 or test compounds reconstituted in dimethyl sulfoxide (DMSO) using a 8-11-point dose range, from 0.001 pM to 10 μM. All treatments were performed in duplicates for 2 hours at 37° C. Cell culture media supplemented with blank dimethyl sulfoxide (DMSO) was used as a negative control for all compounds. Phosphorylated amounts of S6K1 (Thr389) were measured using an ELISA kit (Invitrogen 85-86052-11), following the manufacture's protocol.
(§10) S6K1 is an immediate downstream target of mTORC1 and therefore phosphorylation of S6K1 at Thr389 residue is used to measure mTORC1 activity (PMID: 16968213). Amounts of phosphorylated S6K1 (Thr389) were measured in WT and FKBP12 knock-out 293T cells treated with either RAD001 or Compound 44 (FIGS. 1A and 1B), and Compound 45 (FIGS. 1C and 1D).
On the technique in general: In an ELISA, binding on a coated surface is turned into a signal by an enzyme label.

Data set [4] deals with S6K1 (Thr389) phosphorylation (mTORC1 activity) in FKBP12 knock-out 293T cells. The experiment in a line: Inhibition of S6K1 (Thr389) phosphorylation in FKBP12 knock-out 293T cells (ELISA). The data set is classed as cell-based, human. As to conditions: for selectivity for FKBP12 compared with RAD001 (in words): wild-type versus FKBP12 knock-out cells.
From the text: Example Generation of FKBP 12 knock-out cells. A CRISPR/Cas9 system was used to deliver ribonucleoprotein complexes containing guide RNA sequences that target FKBP12 (ac[…], location 1369062; ccactactcac[…], location 1369181) in HEK293T cells using Lipofectamine CRISPRMAX transfection reagent (Invitrogen CMAX00008). Cell clones were screened by immunoblotting with anti-FKBP-specific antibody (Novus, NB300-508). Single cells that were deficient for FKBP12 protein were selected and cloned.
as §9, §10

Where only a bound is given, the exact number is not on record here.

In general, CLint scaled refers to the capacity of the preparation to metabolise the compound, expressed as a volume cleared per time. By microsomal CLint is commonly meant a measure of how fast metabolising enzymes remove a compound, apart from limits set by blood flow. The low end stands for greater metabolic stability, the high end for faster metabolism. What is called half-life is how long it takes for the measured level to halve. A word on the IC50: it is the point on the concentration scale where inhibition reaches its midpoint. Read a high IC50 as a need for much substance. As usually defined, the inhibition is the drop in the measured response relative to a control, in per cent. Turning to `COc1cccc(NC2C[C@@H]3CC[C@@H](C)[C@@](O)(O3)C(=O)C(=O)N3CCCCC3C(=O)O[C@H]([C@H](C)C[C@@H]3CC[C@@H](O)[C@H](OC)C3)CC[C@H](C)/C=C(\C)[C@@H](O)[C@@H](OC)C(=O)[C@H](C)C[C@H](C)/C=C/C=C/C=C/2C)c1` (stereo partly drawn) [Compound 44, (3S,6S,7E,9R,10R,12R,14S,15E,17E,19E,23S,26R,27R,34aS)-9,27-dihydroxy-3-((R)-1-((1S,3R,4R)-4-hydroxy-3-methoxycyclohexyl)propan-2-yl)-10-methoxy-21-((3-methoxyphenyl)amino)-6,8,12,14,20,26-hexamethyl-5,6,9,10,12,13,14,21,22,23,24,25,26,27,32,33,34,34a-octadecahydro-3H-23,27-epoxypyrido[2,1-c][1]oxa[4]azacyclohentriacontine-1,11,28,29(4H,31H)-tetraone], in data set [1], the “Remaining (T = 60 min)” value is on record as 7.50%, the “Remaining (T = NCF60 min)” value turned out to be 99%, the CLint scaled at 1 µM was determined as 71.7 mL/min/kg and the microsomal CLint at 1 µM amounted to 79.6 µL/min/mg. In addition, the half-life at 1 µM in data set [1] worked out at 17.4 min. Moreover, in data set [2], the CLint scaled at 1 µM turned out to be 162 mL/min/kg, the microsomal CLint at 1 µM is 41 µL/min/mg, the half-life at 1 µM was 33.8 min and the “Remaining (T = 60 min)” value is on record as 31%. Also, in data set [2], the “Remaining (T = NCF60 min)” value amounted to 96%. Moreover, in data set [3], the IC50 amounted to 11 nM, the “fold lower potency compared with RAD001 (by IC50)” value (“fold lower potency” below) was roughly 17 fold and the “extent of inhibition of S6K1 (Thr389) phosphorylation” value (“extent of inhibition of S6K1” below) is recorded as “completely inhibit”. Besides, the “inhibition of S6K1 (Thr389) phosphorylation in the absence of FKBP12 (in words)” value (from here on “inhibition of S6K1 … (in words)”) in data set [4] (FKBP12 knock-out cells) is on record as “did not inhibit S6K1 phosphorylation at any tested concentration lower than 10 μM”. Further, the “fold less potent compared with RAD001” value in data set [4] (FKBP12 knock-out cells, at similar level of inhibition) is roughly 100 fold. The compound also gave an inhibition at 10 µM in data set [4] (Homo sapiens, HEK-293T, FKBP12 knock-out cells, 10 μM (highest tested concentration)) of roughly 30%. Moreover, the “selectivity for FKBP12 compared with RAD001 (in words)” value (“selectivity for FKBP12” below) in data set [4] was “relatively more selective for FKBP12 compared to RAD001”.
Consider `CO[C@@H]1C[C@H](C[C@@H](C)[C@@H]2CC[C@H](C)/C=C(\C)[C@@H](O)[C@@H](OC)C(=O)[C@H](C)C[C@H](C)/C=C/C=C/C=C(\C)C(Nc3ccc(Cl)cc3)C[C@@H]3CC[C@@H](C)[C@@](O)(O3)C(=O)C(=O)N3CCCCC3C(=O)O2)CC[C@H]1O` (stereo partly drawn) [Compound 48, (3S,6S,7E,9R,10R,12R,14S,15E,17E,19E,23S,26R,27R,34aS)-21-((4-chlorophenyl)amino)-9,27-dihydroxy-3-((R)-1-((1S,3R,4R)-4-hydroxy-3-methoxycyclohexyl)propan-2-yl)-10-methoxy-6,8,12,14,20,26-hexamethyl-5,6,9,10,12,13,14,21,22,23,24,25,26,27,32,33,34,34a-octadecahydro-3H-23,27-epoxypyrido[2,1-c][1]oxa[4]azacyclohentriacontine-1,11,28,29(4H,31H)-tetraone], for which, in data set [1], the “Remaining (T = 60 min)” value was found to be 32%, the “Remaining (T = NCF60 min)” value was 107%, the CLint scaled at 1 µM was determined as 37.8 mL/min/kg and the microsomal CLint at 1 µM was 42.1 µL/min/mg. Besides, the half-life at 1 µM in data set [1] came out at 33 min. Besides, in data set [2], the microsomal CLint at 1 µM was less than 9.6 µL/min/mg, the half-life at 1 µM is greater than 145 min, the “Remaining (T = 60 min)” value is given as 101% and the “Remaining (T = NCF60 min)” value is 150%. In data set [3], the IC50 is 9.8 nM, the “fold lower potency” value is 30 fold and the “extent of inhibition of S6K1” value was “near complete inhibition”. The “inhibition of S6K1 … (in words)” value in data set [4] (FKBP12 knock-out cells) is recorded as “did not inhibit S6K1 (Thr389)phosphorylation at any tested concentrations”. In addition, the “selectivity for FKBP12” value in data set [4] is on record as “relatively more selective to FKBP12 compared with RAD001”.
On to `CO[C@@H]1C[C@H](C[C@@H](C)[C@@H]2CC[C@H](C)/C=C(\C)[C@@H](O)[C@@H](OC)C(=O)[C@H](C)C[C@H](C)/C=C/C=C/C=C(\C)C(Nc3ccc(C)cc3)C[C@@H]3CC[C@@H](C)[C@@](O)(O3)C(=O)C(=O)N3CCCCC3C(=O)O2)CC[C@H]1O` (stereo partly drawn) [Compound 49, (3S,6S,7E,9R,10R,12R,14S,15E,17E,19E,23S,26R,27R,34aS)-9,27-dihydroxy-3-((R)-1-((1S,3R,4R)-4-hydroxy-3-methoxycyclohexyl)propan-2-yl)-10-methoxy-6,8,12,14,20,26-hexamethyl-21-(p-tolylamino)-5,6,9,10,12,13,14,21,22,23,24,25,26,27,32,33,34,34a-octadecahydro-3H-23,27-epoxypyrido[2,1-c][1]oxa[4]azacyclohentriacontine-1,11,28,29(4H,31H)-tetraone], for which, in data set [1], the “Remaining (T = 60 min)” value is reported as 15%, the “Remaining (T = NCF60 min)” value turned out to be 102%, the CLint scaled at 1 µM worked out at 59.6 mL/min/kg and the microsomal CLint at 1 µM was 66.2 µL/min/mg. In data set [1], the half-life at 1 µM is 20.9 min. Moreover, in data set [2], the CLint scaled at 1 µM was 42.3 mL/min/kg, the microsomal CLint at 1 µM is 10.7 µL/min/mg, the half-life at 1 µM is 130 min and the “Remaining (T = 60 min)” value came out at 67%. For the same compound, the “Remaining (T = NCF60 min)” value in data set [2] is 139%. Moreover, in data set [3], inhibition was half-maximal at 9.5 nM (IC50), the “fold lower potency” value is 29 fold and the “extent of inhibition of S6K1” value was “near complete inhibition”. Also, in data set [4] (FKBP12 knock-out cells), the “inhibition of S6K1 … (in words)” value is “did not inhibit S6K1 (Thr389)phosphorylation at any tested concentrations”. Besides, in data set [4], the “selectivity for FKBP12” value is listed as “relatively more selective to FKBP12 compared with RAD001”.
